# System: T. cruzi
# Test: 2D-GE plasma proteome profile (differential protein expression) of T. cruzi-infected rats treated with PBN and/or BZ
# Format: in vivo, rat
# Details: for expression of inflammation-associated plasma proteins: APOH
# Description: Certain embodiments include biomarkers identified in a previous study. Parasite persistence and oxidative damage in the heart are known to be of pathological significance during Chagas disease (Zacks et al., (2005) An Acad Bras Cienc, 77, 695-715; Gupta et al., (2009) Interdiscip Perspect Infect Dis, 2009, 190354). […] In the previous study the inventors identified 92 proteins that were differentially expressed or oxidized in chagasic plasma. Functional analysis allocated a majority of these proteins to inflammation/immunity and lipid metabolism categories, and to molecular pathways associated with cardiovascular dysfunction, e.g., myocardial infarction, hypertrophy, and fibrosis, and pulmonary embolism and hypertension. Some proteins in chagasic rats treated with PBN and/or BZ were allocated to curative pathways (immune regulation and cardiac remodeling). The 2D-GE results were validated by Western blotting. […] Increased plasma levels of GSN, MYL2, and VIM were directly correlated with the severity of cardiac disease in human chagasic patients. […] These findings have utility in diagnosing disease severity and designing suitable therapy for management of human chagasic patients.
# Ingenuity Pathway Analysis (IPA) is a highly curated and comprehensive software used for the integration of proteins into networks and pathways with biological meaning (Thomas and Bonchev, (2010). Hum Genomics, 4, 353-360). Network analysis of the plasma proteome profile of chagasic rats identified four major sub-networks linked to host response to T. cruzi infection and disease development (Table V). The maximal numbers of the differentially expressed plasma proteins (19 proteins) in chagasic rats were associated with antigen presentation and inflammatory response category (Table V) and indicators of persistent inflammation, known to be of pathological significance in Chagas disease (Dhiman et al., (2009) Clinical and Vaccine Immunology, 16, 660-666; Tanowitz et al., (2009) Prog Cardiovasc Dis, 51, 524-539; Junqueira et al., (2010) Expert Rev Mol Med, 12, e29). Following functional analysis of the inflammation-associated proteins, 12 proteins (APOA1, APOE, C3, CFB, CFH, FGB, GSN, KRT10, PLG, SCG2, SERPINA1, and SERPINC1) were identified as being involved in immune cell trafficking and cell movement of leukocytes, granulocytes, phagocytes, neutrophils, and dendritic and antigen presenting cells. Some of the differentially expressed proteins in inflammation category were associated with activation (APOE, C3, CFH, GC and PLG), chemotaxis (C3, SCG2, SERPINA1, SERPINC1), and infiltration of leukocytes (APOA1, APOE, C3, PLG, KRT10) and neutrophils (C3, CFB, CFH, PLG). Up regulation of APOE, APOA1, APOH, GC and PLG in chagasic plasma was indicative of activation, binding and accumulation of macrophages in the disease state. Of the 19 differentially expressed inflammation-associated proteins, 11 proteins (APOE, C3, CFB, CFH, GSN, KRT10, SCG2, SERPINA1, SERPINC1, GC, and PLG) were carbonylated in chagasic plasma. […] Other proteins (APOE, C3, KRT3, and SCG2) were exposed to oxidation due to T. cruzi-induced, acute oxidative stress, but were normalized in expression and oxidation during the chronic phase.
# Seventeen of the differentially expressed proteins in chagasic plasma, i.e., AFM, C4BPA, CACNA1D, DLGAP2, GC, KNG1, MUG1, MYLPF, MY05A, MY05B, PRPH, PZP, RAI14, and SCG2, were allotted to the lipid metabolism/molecular transport/small molecule biochemistry category (Table V) and functionally linked by IPA network analysis to lipid, fatty acid, and carbohydrate metabolism. A majority of the proteins in this category, i.e., ALB, APOA1, APOA4, APOE, APOH, C3, GC, GNAQ, MY05A, PLG, SCD2, SERPINA1, SERPINC1 and VIM, were linked to the synthesis, metabolism, transport, and modification of lipids and fatty acids, and to uptake and release or efflux of lipids, eicosanoids, and cholesterol. […]
# [1] = plasma, RAP group (acute infection)
smiles,measurement,setting,value
CC(C)(C)/[N+]([O-])=C/c1ccccc1 [PBN],expression of inflammation-associated plasma proteins,"acutely infected rats, APOE, CFH, PLG and SCG2",normalized or regulated the expression
same,expression of inflammation-associated plasma proteins,"chronically infected rats, GC, GSN and PLG",normalized or regulated the expression
same,"expression level of CFB, GSN, C3, and SERPINC1",infected rats,partly regulated
same,"Spot# 12, 180 Average Normalized Density × 100,000",[1],21.47
same,"Spot# 34 Average Normalized Density × 100,000",[1],0.37
same,"Spot# 37, 593 Average Normalized Density × 100,000",[1],14.38
same,"Spot# 49, 673 Average Normalized Density × 100,000",[1],19.12
same,"Spot# 52, 54, 302 Average Normalized Density × 100,000",[1],9.80
same,"Spot# 53, 225 Average Normalized Density × 100,000",[1],8.76
same,"Spot# 72 Average Normalized Density × 100,000",[1],18.10
same,"Spot# 73, 705, 787 Average Normalized Density × 100,000",[1],46.94
same,"Spot# 77 Average Normalized Density × 100,000",[1],16.3
same,"Spot# 88 Average Normalized Density × 100,000",[1],74.61
same,"Spot# 94 Average Normalized Density × 100,000",[1],1.84
same,"Spot# 115, 123 Average Normalized Density × 100,000",[1],22.27
same,"Spot# 149 Average Normalized Density × 100,000",[1],0.78
same,"Spot# 153 Average Normalized Density × 100,000",[1],27.07
same,"Spot# 177 Average Normalized Density × 100,000",[1],3.71
same,"Spot# 181 Average Normalized Density × 100,000",[1],3.99
same,"Spot# 184, 257, 328 Average Normalized Density × 100,000",[1],4.54
same,"Spot# 207, 555 Average Normalized Density × 100,000",[1],13.23
same,"Spot# 215 Average Normalized Density × 100,000",[1],1.73
same,"Spot# 266 Average Normalized Density × 100,000",[1],0.75
same,"Spot# 299 Average Normalized Density × 100,000",[1],1.92
same,"Spot# 315 Average Normalized Density × 100,000",[1],6.24
same,"Spot# 334 Average Normalized Density × 100,000",[1],0.61
same,"Spot# 341 Average Normalized Density × 100,000",[1],0.59
same,"Spot# 355, 359 Average Normalized Density × 100,000",[1],2.99
same,"Spot# 382, 385, 378, 572, 578, 595 Average Normalized Density × 100,000",[1],33.76
same,"Spot# 389 Average Normalized Density × 100,000",[1],37.55
same,"Spot# 430 Average Normalized Density × 100,000",[1],22.40
same,"Spot# 434, 678 Average Normalized Density × 100,000",[1],55.14
same,"Spot# 439 Average Normalized Density × 100,000",[1],4.04
same,"Spot# 452 Average Normalized Density × 100,000",[1],18.92
same,"Spot# 464 Average Normalized Density × 100,000",[1],3.89
same,"Spot# 479 Average Normalized Density × 100,000",[1],23.96
same,"Spot# 493 Average Normalized Density × 100,000",[1],9.82
same,"Spot# 515 Average Normalized Density × 100,000",[1],6.87
same,"Spot# 524 Average Normalized Density × 100,000",[1],53.74
same,"Spot# 551, 587, 908 Average Normalized Density × 100,000",[1],88.04
same,"Spot# 559 Average Normalized Density × 100,000",[1],24.39
same,"Spot# 571 Average Normalized Density × 100,000",[1],7.84
same,"Spot# 576, 620 Average Normalized Density × 100,000",[1],18.08
same,"Spot# 586, 614 Average Normalized Density × 100,000",[1],50.44
same,"Spot# 592 Average Normalized Density × 100,000",[1],15.61
same,"Spot# 604 Average Normalized Density × 100,000",[1],22.81
same,"Spot# 606 Average Normalized Density × 100,000",[1],9.60
same,"Spot# 627 Average Normalized Density × 100,000",[1],30.23
same,"Spot# 638 Average Normalized Density × 100,000",[1],4.42
same,"Spot# 649 Average Normalized Density × 100,000",[1],40.69
same,"Spot# 651 Average Normalized Density × 100,000",[1],94.03
same,"Spot# 655 Average Normalized Density × 100,000",[1],240.6
same,"Spot# 672 Average Normalized Density × 100,000",[1],7.34
same,"Spot# 676 Average Normalized Density × 100,000",[1],14.69
same,"Spot# 691 Average Normalized Density × 100,000",[1],49.99
same,"Spot# 715 Average Normalized Density × 100,000",[1],10.83
same,"Spot# 724 Average Normalized Density × 100,000",[1],1.72
same,"Spot# 728 Average Normalized Density × 100,000",[1],0.76
same,"Spot# 733 Average Normalized Density × 100,000",[1],2.24
same,"Spot# 740 Average Normalized Density × 100,000",[1],7.81
same,"Spot# 745 Average Normalized Density × 100,000",[1],4.51
same,"Spot# 749 Average Normalized Density × 100,000",[1],4.71
same,"Spot# 766 Average Normalized Density × 100,000",[1],3.20
same,"Spot# 779, 909 Average Normalized Density × 100,000",[1],5.45
same,"Spot# 796 Average Normalized Density × 100,000",[1],9.97
same,"Spot# 814 Average Normalized Density × 100,000",[1],0.60
same,"Spot# 817 Average Normalized Density × 100,000",[1],12.14
same,"Spot# 820, 1081 Average Normalized Density × 100,000",[1],4.59
same,"Spot# 827 Average Normalized Density × 100,000",[1],17.91
same,"Spot# 832 Average Normalized Density × 100,000",[1],6.23
same,"Spot# 860 Average Normalized Density × 100,000",[1],3.06
same,"Spot# 867 Average Normalized Density × 100,000",[1],2.56
same,"Spot# 881 Average Normalized Density × 100,000",[1],13.92
same,"Spot# 897 Average Normalized Density × 100,000",[1],4.82
same,"Spot# 900 Average Normalized Density × 100,000",[1],25.94
same,"Spot# 906 Average Normalized Density × 100,000",[1],49.40
same,"Spot# 966 Average Normalized Density × 100,000",[1],53.33

# Source: patent publication US9696323B2, “Biomarkers for chagas disease related cardiomyopathy” (THE BOARD OF REGENTS OF THE UNIVERSITY OF TEXAS SYSTEM, priority 2013, dated 2017)
